# Data from the supplement of paper PMC11061612.
# Key:
# Experiment in all cases: combination Emax (second highest fraction inhibited in the dose matrix, 72 h); higher = more inhibition; extreme values may be limits of the assay
# [1] = system: NALM-6 (B-Lymphoblastic Leukemia)
# Summary of the method: (§1)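 Bliss excess equals the observed combination effect minus the expected value EA + EB − EA·EB, where EA and EB are the effects of each agent alone. Combination Emax is the second-highest inhibition within the matrix. Inhibition was scaled from CellTiter-Glo 2.0 luminescence, with 0 set by vehicle wells and 1 by blank wells, after 72 hours of two-drug dosing of cells plated in 1536-well plates.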
# [2] = system: HT-29 (Colorectal Carcinoma)
# Summary of the method: as §1
# NCI-H2369 (Mesothelioma) = system: NCI-H2369 (Mesothelioma)
# Summary of the method: as §1
# [3] = system: C3A (Hepatocellular Carcinoma)
# Summary of the method: as §1
# [4] = system: NCI-H1694 (Small Cell Lung Carcinoma)
# Summary of the method: as §1
# [5] = system: G-292-Clone-A141B1 (Osteosarcoma)
# Summary of the method: as §1
# SN12C (Kidney Carcinoma) = system: SN12C (Kidney Carcinoma)
# Summary of the method: as §1
# [6] = system: IHH-4 (Thyroid Gland Carcinoma)
# Summary of the method: as §1
# IGR-1 (Melanoma) = system: IGR-1 (Melanoma)
# Summary of the method: as §1
# [7] = system: SW780 (Bladder Carcinoma)
# Summary of the method: as §1
# [8] = system: MDA-MB-231 (Breast Carcinoma)
# Summary of the method: as §1
# [9] = system: KATOIII (Gastric Carcinoma)
# Summary of the method: as §1
# [10] = system: KARPAS-620 (Plasma Cell Myeloma)
# Summary of the method: as §1
# [11] = system: SNU-C5 (Colorectal Carcinoma)
# Summary of the method: as §1
# [12] = system: SW1088 (Low Grade Glioma)
# Summary of the method: as §1
# [13] = system: CFPAC-1 (Pancreatic Carcinoma)
# Summary of the method: as §1
# [14] = system: NCI-H1793 (Lung Adenocarcinoma)
# Summary of the method: as §1
# [15] = system: NCI-H1299 (Non-Small Cell Lung Carcinoma)
# Summary of the method: as §1
# [16] = system: SW1783 (Low Grade Glioma)
# Summary of the method: as §1
# RH-1 (Ewing's Sarcoma) = system: RH-1 (Ewing's Sarcoma)
# Summary of the method: as §1
SMILES,combination Emax [1],combination Emax [2],combination Emax (NCI-H2369 (Mesothelioma)),combination Emax [3],combination Emax [4],combination Emax [5],combination Emax (SN12C (Kidney Carcinoma)),combination Emax [6],combination Emax (IGR-1 (Melanoma)),combination Emax [7],combination Emax [8],combination Emax [9],combination Emax [10],combination Emax [11],combination Emax [12],combination Emax [13],combination Emax [14],combination Emax [15],combination Emax [16],combination Emax (RH-1 (Ewing's Sarcoma))
"C[C@@H](c1ccc2nccn2c1)n1nnc2ncc(-c3cnn(C)c3)nc21 [Savolitinib] + CC1(C)CCC(CN2CCN(c3ccc(C(=O)NS(=O)(=O)c4ccc(NCC5CCOCC5)c([N+](=O)[O-])c4)c(Oc4cnc5[nH]ccc5c4)c3)CC2)=C(c2ccc(Cl)cc2)C1 [Venetoclax] (first compound max 1 µM, 7x7, partner max 1 µM)",0.316,0.149,0.096,0.148,0.102,0.0932,0.219,0.0656,0.114,0.11,0.306,0.337,0.776,0.183,0.224,0.0889,0.193,0.14,0.156,0.0824
"COc1cc2c(cc1OCCCCCOc1cc3c(cc1OC)C(=O)N1C=C(C)C[C@H]1C=N3)N=C[C@@H]1CC(C)=CN1C2=O [SG3199] + O=C(c1cc(Cc2n[nH]c(=O)c3ccccc23)ccc1F)N1CCN(C(=O)C2CC2)CC1 [Olaparib] (first compound max 0.001 µM, 7x7, partner max 10 µM)",0.459,0.0781,0.0848,0.215,0.112,0.145,0.172,0.193,0.187,0.128,0.178,0.0764,0.139,0.147,0.151,0.175,0.138,0.138,0.0897,0.189
"Cc1c2c(nn1C)CSCc1cc(n(C)n1)CSc1cc(c3ccccc3c1)OCCCc1c(C(=O)O)n(C)c3c-2c(Cl)ccc13 [AZD5991] + C=CCn1c(=O)c2cnc(Nc3ccc(N4CCN(C)CC4)cc3)nc2n1-c1cccc(C(C)(C)O)n1 [AZD1775] (first compound max 1 µM, partner max 1 µM)",0.878,0.877,0.327,,0.961,0.262,0.358,0.684,0.63,0.172,0.418,0.237,1,0.732,0.352,0.555,0.488,0.83,0.322,0.994
"CN(CCO)CC[C@H](CSc1ccccc1)Nc1ccc(S(=O)(=O)NC(=O)c2ccc(N3CCC([C@@H](O)c4ccccc4-c4ccc(Cl)cc4)CC3)cc2)cc1S(=O)(=O)C(F)(F)F [AZD4320] + C[C@@H]1COCCN1C2=NC(=NC(=C2)C3(CC3)[S@](=N)(=O)C)C4=C5C=CNC5=NC=C4 [AZD6738] (first compound max 1 µM, 7x7, partner max 10 µM)",1,0.936,0.324,0.52,0.974,0.754,0.328,0.769,0.969,0.506,0.849,0.474,1,0.854,0.586,0.724,0.498,,0.669,0.963
"CC(=O)c1c(C)c2cnc(Nc3ccc(N4CCNCC4)cn3)nc2n(C2CCCC2)c1=O [Palbociclib] + CN(CC[C@H](CSC1=CC=CC=C1)NC2=C(C=C(C=C2)S(=O)(=O)NC(=O)C3=CC=C(C=C3)N4CCC(CC4)[C@H](C5=CC=CC=C5C6=CC=C(C=C6)Cl)O)S(=O)(=O)C(F)(F)F)CCO [AZD4320] (first compound max 10 µM, 7x7, partner max 1 µM)",,0.498,0.259,0.639,0.941,,,,0.976,0.395,,,,0.388,,0.419,0.337,,,0.684
"CCc1c2c(nc3ccc(O)cc13)-c1cc3c(c(=O)n1C2)COC(=O)[C@]3(O)CC [SN-38] + O=C(c1cc(Cc2n[nH]c(=O)c3ccccc23)ccc1F)N1CCN(C(=O)C2CC2)CC1 [Olaparib] (first compound max 0.3 µM, 7x7, partner max 10 µM)",0.99,0.936,0.265,0.665,,0.179,0.738,0.921,0.634,,0.681,0.252,0.25,,0.434,0.831,,0.544,0.862,1
"C=CCn1c(=O)c2cnc(Nc3ccc(N4CCN(C)CC4)cc3)nc2n1-c1cccc(C(C)(C)O)n1 [AZD1775] + C1CN(CCC1(C(=O)N[C@@H](CCO)C2=CC=C(C=C2)Cl)N)C3=NC=NC4=C3C=CN4 [Capivasertib] (first compound max 3 µM, partner max 3 µM)",0.985,0.834,0.3,0.62,,0.492,0.359,0.91,0.482,0.399,0.624,0.476,0.857,0.795,0.723,0.723,0.428,0.793,0.688,0.98
"CN(C)CCCOc1ccc(-c2ccc3ncc4c(c3c2)n(C2CCOCC2)c(=O)n4C)cn1 [AZD0156] + O=C(c1cc(Cc2n[nH]c(=O)c3ccccc23)ccc1F)N1CCN(C(=O)C2CC2)CC1 [Olaparib] (first compound max 3 µM, partner max 3 µM)",0.696,0.407,0.181,0.22,,0.411,0.102,0.516,0.209,0.183,0.405,0.195,0.612,0.325,0.417,0.434,0.496,0.335,0.401,0.649
"COc1nnc2ccc(N3CCC(c4ccc(OCCN5CCN(C)C(=O)[C@H]5C)cc4)CC3)nn12 [AZD5153] + CN(CC[C@H](CSC1=CC=CC=C1)NC2=C(C=C(C=C2)S(=O)(=O)NC(=O)C3=CC=C(C=C3)N4CCC(CC4)[C@H](C5=CC=CC=C5C6=CC=C(C=C6)Cl)O)S(=O)(=O)C(F)(F)F)CCO [AZD4320] (first compound max 1 µM, 7x7, partner max 1 µM)",,0.774,0.299,0.489,1,,,,0.909,0.369,,,,0.569,,0.401,0.323,,,0.49
"C[C@@H](c1ccc2nccn2c1)n1nnc2ncc(-c3cnn(C)c3)nc21 [Savolitinib] + CN(CC[C@H](CSC1=CC=CC=C1)NC2=C(C=C(C=C2)S(=O)(=O)NC(=O)C3=CC=C(C=C3)N4CCC(CC4)[C@H](C5=CC=CC=C5C6=CC=C(C=C6)Cl)O)S(=O)(=O)C(F)(F)F)CCO [AZD4320] (first compound max 1 µM, 7x7, partner max 1 µM)",,0.172,0.114,0.183,0.622,,,,0.409,0.393,,,,0.173,,0.143,0.168,,,0.488
"Cc1c2c(nn1C)CSCc1cc(n(C)n1)CSc1cc(c3ccccc3c1)OCCCc1c(C(=O)O)n(C)c3c-2c(Cl)ccc13 [AZD5991] + C1CN(CCC1(C(=O)N[C@@H](CCO)C2=CC=C(C=C2)Cl)N)C3=NC=NC4=C3C=CN4 [Capivasertib] (first compound max 1 µM, 7x7, partner max 3 µM)",0.694,0.236,0.22,0.254,1,0.248,0.204,,0.26,0.165,0.194,0.233,1,,0.527,0.2,0.302,0.224,0.352,0.795
"Cc1c2c(nn1C)CSCc1cc(n(C)n1)CSc1cc(c3ccccc3c1)OCCCc1c(C(=O)O)n(C)c3c-2c(Cl)ccc13 [AZD5991] + Cc1cc2ncnn2cc1Nc1ncc2c(n1)n(C1CCOCC1)c(=O)n2C [AZD7648] (first compound max 1 µM, 7x7, partner max 10 µM)",0.471,0.223,0.17,0.248,0.998,0.267,0.269,0.35,0.237,,0.333,0.178,1,0.267,0.423,0.259,0.41,0.34,0.256,0.605
"C[C@@H]1COCCN1c1cc(C2([S@](C)(=N)=O)CC2)nc(-c2ccnc3[nH]ccc23)n1 [AZD6738] + O=C(c1cc(Cc2n[nH]c(=O)c3ccccc23)ccc1F)N1CCN(C(=O)C2CC2)CC1 [Olaparib] (first compound max 10 µM, 7x7, partner max 10 µM)",0.976,0.799,0.133,0.429,0.734,0.283,0.249,0.773,0.452,0.181,0.572,0.341,0.544,0.696,0.501,,0.379,0.666,0.407,0.965
